Experimental data taken from patent US9630961B2, “Arginine methyltransferase inhibitors and uses thereof” (Epizyme, Inc., priority 2013, dated 2017).

System: mono-methyl arginine in RKO cells
Test: RKO Methylation Assay, In Cell Western for mono-methyl arginine and DNA content
Assay type: cell-based
Conditions: Homo sapiens, 72 hours, percent activation of mono-methyl arginine signal
From the text: RKO Methylation Assay RKO adherent cells were purchased from ATCC (American Type Culture Collection), Manassas, Va., USA. DMEM/Glutamax medium, penicillin-streptomycin, heat inactivated fetal bovine serum, 0.05% trypsin and D-PBS were purchased from Life Technologies, Grand Island, N.Y., USA. Odyssey blocking buffer, 800CW goat anti-rabbit IgG (H+L) antibody, and Licor Odyssey infrared scanner were purchased from Licor Biosciences, Lincoln, Nebr., USA. Mono-methyl arginine antibody was purchased from Cell Signaling Technology, Danvers, Mass., USA. Methanol was purchased from VWR, Franklin, Mass., USA. 10% Tween 20 was purchased from KPL, Inc., Gaithersburg, Md., USA. DRAQ5 was purchased from Biostatus Limited, Leicestershire, UK. RKO adherent cells were maintained in growth medium (DMEM/Glutamax medium supplemented with 10% v/v heat inactivated fetal bovine serum and 100 units/mL penicillin-streptomycin) and cultured at 37° C. under 5% CO2. Cell Treatment, in Cell Western (ICW) for Detection of Mono-Methyl Arginine and DNA Content. RKO cells were seeded in assay medium at a concentration of 20,000 cells per mL to a poly-D-lysine coated 384 well culture plate (BD Biosciences 356697) with 50 μL per well. Compound (100 nL) from a 96-well source plate was added directly to 384 well cell plate. Plates were incubated at 37° C., 5% CO2 for 72 hours. After three days of incubation, plates were brought to room temperature outside of the incubator for ten minutes and blotted on paper towels to remove cell media. 50 μL of ice cold 100% methanol was added directly to each well and incubated for 30 min at room temperature. After 30 min, plates were transferred to a Biotek EL406 plate washer and washed 2 times with 100 μL per well of wash buffer (IX PBS). Next 60 μL per well of Odyssey blocking buffer (Odyssey Buffer with 0.1% Tween 20 (v/v)) were added to each plate and incubated 1 hour at room temperature. Blocking buffer was removed and 20 μL per well of primary antibody was added (mono-methyl arginine diluted 1:200 in Odyssey buffer with 0.1% Tween 20 (v/v)) and plates were incubated overnight (16 hours) at 4° C. Plates were washed 5 times with 100 μL per well of wash buffer. Next 20 μL per well of secondary antibody was added (1:200 800CW goat anti-rabbit IgG (H+L) antibody, 1:1000 DRAQ5 (Biostatus limited) in Odyssey buffer with 0.1% Tween 20 (v/v)) and incubated for 1 hour at room temperature. The plates were washed 5 times with 100 μL per well wash buffer then 2 times with 100 μL per well of water. Plates were allowed to dry at room temperature then imaged on the Licor Odyssey machine which measures integrated intensity at 700 nm and 800 nm wavelengths. Both 700 and 800 channels were scanned. Calculations: First, the ratio for each well was determined by: Each plate included fourteen control wells of DMSO only treatment (minimum activation) as well as fourteen control wells for maximum activation treated with 20 μM of a reference compound. The average of the ratio values for each control type was calculated and used to determine the percent activation for each test well in the plate. Reference compound was serially diluted three-fold in DMSO for a total of nine test concentrations, beginning at 20 μM. Percent activation was determined and EC30 curves were generated using triplicate wells per concentration of compound.

SMILES | EC30 [µM]
CN(CCN)Cc1c[nH]nc1-c1cnc2[nH]ccc2c1 [Compound 13] | 3.01 to 12
CN(CCN)Cc1c[nH]nc1-c1cnc(C2CC2)nc1 [Compound 28] | ≥ 12
CN(CCN)Cc1c[nH]nc1-c1ccc2nccn2c1 [Compound 21, N^1-((3-(imidazo[1,2-a]pyridin-6-yl)-1H-pyrazol-4-yl)methyl)-N^1-methylethane-1,2-diamine] | 3.01 to 12
Cc1n[nH]c(C)c1-c1n[nH]cc1CN(C)CCN [Compound 25] | ≥ 12
CN(CCN)Cc1c[nH]nc1-c1cnn(-c2ccccc2)c1 [Compound 17] | ≤ 3
CN(CCN)Cc1c[nH]nc1-c1ccc2cnn(C)c2c1 [Compound 19, N^1-methyl-N^1-((3-(1-methyl-1H-indazol-6-yl)-1H-pyrazol-4-yl)methyl)ethane-1,2-diamine] | 3.01 to 12
CN(CCN)Cc1c[nH]nc1-c1ccnn1C [Compound 15] | ≥ 12
CCn1cc(-c2n[nH]cc2CN(C)CCN)cn1 [Compound 16] | ≥ 12
CC(C)n1cc(-c2n[nH]cc2CN(C)CCN)cn1 [Compound 22] | 3.01 to 12
CN(CCN)Cc1c[nH]nc1-c1ccc2[nH]ncc2c1 [Compound 27, N^1-((3-(1H-indazol-5-yl)-1H-pyrazol-4-yl)methyl)-N^1-methylethane-1,2-diamine] | ≤ 3
CC(C)Cn1cc(-c2n[nH]cc2CN(C)CCN)cn1 [Compound 23, N^1-((2′-isobutyl-3,4′-bi(1H-pyrazol)-4-yl)methyl)-N^1-methylethane-1,2-diamine] | ≤ 3
CN(CCN)Cc1c[nH]nc1-c1ccc2ncnn2c1 [Compound 20] | ≥ 12
CN(CCN)Cc1c[nH]nc1-c1cn[nH]c1 [Compound 12] | ≥ 12
CN(CCN)Cc1c[nH]nc1-c1cnn(CCO)c1 [Compound 18] | ≥ 12
CN(CCN)Cc1c[nH]nc1-c1cnn(C)c1 [Compound 8] | ≥ 12
CN(CCN)Cc1c[nH]nc1-c1cncnc1 [Compound 4] | ≥ 12
CN(CCN)Cc1c[nH]nc1-c1cc[nH]n1 [Compound 14] | ≥ 12
CN(CCN)Cc1c[nH]nc1-c1cnn(Cc2ccccc2)c1 [Compound 24, N^1-((1′-benzyl-3,4′-bi(1H-pyrazol)-4-yl)methyl)-N^1-methylethane-1,2-diamine] | ≤ 3
CN(CCN)Cc1c[nH]nc1-c1ccc2scnc2c1 [Compound 9] | 3.01 to 12
